From ChEMBL document CHEMBL4330132, “5-Keto-3-cyano-2,4-diaminothiophenes as selective maternal embryonic leucine zipper kinase inhibitors” (Bioorg Med Chem Lett, 2019)

How the values were obtained:
[1] = molecular target: Atypical kinase COQ8A, mitochondrial (Homo sapiens) (UniProt Q8NI60); experiment: Binding affinity to wild-type human full length ADCK3 (M280 to Q647 residues) expressed in bacterial expression system assessed as residual binding level at 1 uM by Kinomescan method relative to control
[2] = molecular target: 5'-AMP-activated protein kinase catalytic subunit alpha-1 (Homo sapiens) (UniProt Q13131); experiment: Binding affinity to wild-type human partial length AMPK alpha1 (M1 to E306 residues) expressed in bacterial expression system assessed as residual binding level at 1 uM by Kinomescan method relative to control
[3] = molecular target: Mitogen-activated protein kinase kinase kinase 6 (Homo sapiens) (UniProt O95382); experiment: Binding affinity to wild-type human partial length ASK2 (M278 to R972 residues) expressed in mammalian expression system assessed as residual binding level at 1 uM by Kinomescan method relative to control
[4] = molecular target: Aurora kinase C (Homo sapiens) (UniProt Q9UQB9); experiment: Binding affinity to wild-type human full length AURKC (M1 to S275 residues) expressed in bacterial expression system assessed as residual binding level at 1 uM by Kinomescan method relative to control
[5] = molecular target: Protein-tyrosine kinase 6 (Homo sapiens) (UniProt Q13882); experiment: Binding affinity to wild-type human partial length BRK (L166 to T451 residues) expressed in bacterial expression system assessed as residual binding level at 1 uM by Kinomescan method relative to control
[6] = molecular target: Calcium/calmodulin-dependent protein kinase type II subunit alpha (Homo sapiens) (UniProt Q9UQM7); experiment: Binding affinity to wild-type human partial length CAMK2A (M1 to K328 residues) expressed in bacterial expression system assessed as residual binding level at 1 uM by Kinomescan method relative to control
[7] = molecular target: Tyrosine-protein kinase CSK (Homo sapiens) (UniProt P41240); experiment: Binding affinity to wild-type human full length CSK (M1 to L450 residues) expressed in bacterial expression system assessed as residual binding level at 1 uM by Kinomescan method relative to control
[8] = molecular target: Casein kinase II subunit alpha' (Homo sapiens) (UniProt P19784); experiment: Binding affinity to wild-type human full length CSNK2A2 (M1 to R350 residues) expressed in mammalian expression system assessed as residual binding level at 1 uM by Kinomescan method relative to control
[9] = molecular target: Ephrin type-A receptor 1 (Homo sapiens) (UniProt P21709); experiment: Binding affinity to wild-type human partial length EPHA1 (V588 to I913 residues) expressed in bacterial expression system assessed as residual binding level at 1 uM by Kinomescan method relative to control
[10] = molecular target: Glycogen synthase kinase-3 beta (Homo sapiens) (UniProt P49841); experiment: Binding affinity to wild-type human full length GSK3B (M1 to T433 residues) expressed in mammalian expression system assessed as residual binding level at 1 uM by Kinomescan method relative to control
[11] = molecular target: MAP/microtubule affinity-regulating kinase 3 (Homo sapiens) (UniProt P27448); experiment: Binding affinity to wild-type human full length MARK3 (M1 to L729 residues) expressed in bacterial expression system assessed as residual binding level at 1 uM by Kinomescan method relative to control
[12] = molecular target: Dual specificity mitogen-activated protein kinase kinase 1 (Homo sapiens) (UniProt Q02750); experiment: Binding affinity to wild-type human full length MEK1 (M1 to V393 residues) expressed in mammalian expression system assessed as residual binding level at 1 uM by Kinomescan method relative to control
[13] = molecular target: Serine/threonine-protein kinase 3 (Homo sapiens) (UniProt Q13188); experiment: Binding affinity to wild-type human partial length MST2 (D17 to E318 residues) expressed in bacterial expression system assessed as residual binding level at 1 uM by Kinomescan method relative to control
[14] = molecular target: Serine/threonine-protein kinase 26 (Homo sapiens) (UniProt Q9P289); experiment: Binding affinity to wild-type human full length MST4 (M1 to P416 residues) expressed in mammalian expression system assessed as residual binding level at 1 uM by Kinomescan method relative to control
[15] = molecular target: Serine/threonine-protein kinase Nek11 (Homo sapiens) (UniProt Q8NG66); experiment: Binding affinity to wild-type human partial length NEK11 (M1 to E313 residues) expressed in mammalian expression system assessed as residual binding level at 1 uM by Kinomescan method relative to control
[16] = molecular target: Serine/threonine-protein kinase PAK 1 (Homo sapiens) (UniProt Q13153); experiment: Binding affinity to wild-type human partial length PAK1 (S149 to H545 residues) expressed in bacterial expression system assessed as residual binding level at 1 uM by Kinomescan method relative to control
[17] = molecular target: Serine/threonine-protein kinase PAK 3 (Homo sapiens) (UniProt O75914); experiment: Binding affinity to wild-type human full length PAK3 (M1 to R544 residues) expressed in bacterial expression system assessed as residual binding level at 1 uM by Kinomescan method relative to control
[18] = molecular target: Phosphatidylinositol 4-phosphate 5-kinase type-1 alpha (Homo sapiens) (UniProt Q99755); experiment: Binding affinity to wild-type human full length PIP5K1A (M1 to H562 residues) expressed in bacterial expression system assessed as residual binding level at 1 uM by Kinomescan method relative to control
[19] = molecular target: Serine/threonine-protein kinase RIO1 (Homo sapiens) (UniProt Q9BRS2); experiment: Binding affinity to wild-type human full length RIOK1 (M1 to K568 residues) expressed in bacterial expression system assessed as residual binding level at 1 uM by Kinomescan method relative to control
[20] = molecular target: Ribosomal protein S6 kinase alpha-3 (Homo sapiens) (UniProt P51812); experiment: Binding affinity to wild-type human partial length N-terminal RSK2 kinase domain 1 (M1 to D394 residues) expressed in mammalian expression system assessed as residual binding level at 1 uM by Kinomescan method relative to control
[21] = molecular target: Proto-oncogene tyrosine-protein kinase Src (Homo sapiens) (UniProt P12931); experiment: Binding affinity to wild-type human partial length SRC (L240 to L536 residues) expressed in bacterial expression system assessed as residual binding level at 1 uM by Kinomescan method relative to control
[22] = molecular target: Tyrosine-protein kinase receptor Tie-1 (Homo sapiens) (UniProt P35590); experiment: Binding affinity to wild-type human partial length TIE1 (T819 to A1138 residues) expressed in bacterial expression system assessed as residual binding level at 1 uM by Kinomescan method relative to control
[23] = molecular target: TRAF2 and NCK-interacting protein kinase (Homo sapiens) (UniProt Q9UKE5); experiment: Binding affinity to wild-type human partial length TNIK (D4 to K311 residues) expressed in bacterial expression system assessed as residual binding level at 1 uM by Kinomescan method relative to control
[24] = molecular target: Serine/threonine-protein kinase ULK2 (Homo sapiens) (UniProt Q8IYT8); experiment: Binding affinity to wild-type human partial length ULK2 (M1 to S301 residues) expressed in mammalian expression system assessed as residual binding level at 1 uM by Kinomescan method relative to control
[25] = molecular target: Wee1-like protein kinase (Homo sapiens) (UniProt P30291); experiment: Binding affinity to wild-type human partial length WEE1 (M291 to K575 residues) expressed in bacterial expression system assessed as residual binding level at 1 uM by Kinomescan method relative to control

In the case of `CC(C)Nc1sc(C(=O)c2ccc(Cl)s2)c(N)c1C#N`, the Activity [1] was 93%, the Activity [2] was 70% and the Activity [3] was 100%. It also gave an Activity [4] of 100%, an Activity [5] of 83% and an Activity [6] of 90%. For the same compound, the Activity [7] was 88%, the Activity [8] was 100% and the Activity [9] was 95%. For the same compound, the Activity [10] was 97%, the Activity [11] was 78% and the Activity [12] was 96%. For the same compound, the Activity [13] was 82%, the Activity [14] was 100% and the Activity [15] was 97%. The Activity [16] was 83%, the Activity [17] was 95% and the Activity [18] was 81%. The Activity [19] was 74%, the Activity [20] was 99% and the Activity [21] was 83%. The Activity [22] was 69%, the Activity [23] was 62% and the Activity [24] was 100%. The Activity [25] was 94%.
